Several values for one entry are separate records, joined by “and”; a condition that tells them apart may be missing. Equal values may be shown once. Read-outs that look alike come from different tables or passages of the source. Blank lines part the entries; values can stand above or below the compound they belong to.
Key:
CDK12–cyclin K = CDK12–cyclin K (Homo sapiens, UniProt Q9NYV4); assay: Lanthascreen kinase binding assay, CDK12; settings: for Lanthascreen raw signal, sheet CDK12: duplicates
Sequence of CDK12–cyclin K (Q9NYV4 713-1052): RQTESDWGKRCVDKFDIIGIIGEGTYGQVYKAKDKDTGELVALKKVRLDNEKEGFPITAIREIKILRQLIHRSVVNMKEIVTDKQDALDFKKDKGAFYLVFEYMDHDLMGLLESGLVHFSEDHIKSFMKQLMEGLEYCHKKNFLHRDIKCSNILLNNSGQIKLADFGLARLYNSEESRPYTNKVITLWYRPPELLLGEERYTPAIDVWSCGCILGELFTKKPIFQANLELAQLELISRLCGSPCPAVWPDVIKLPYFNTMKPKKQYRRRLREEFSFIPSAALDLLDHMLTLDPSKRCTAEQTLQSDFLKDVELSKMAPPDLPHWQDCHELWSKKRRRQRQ
Sequence of CDK12–cyclin K (O75909 1-267 partner limits assumed): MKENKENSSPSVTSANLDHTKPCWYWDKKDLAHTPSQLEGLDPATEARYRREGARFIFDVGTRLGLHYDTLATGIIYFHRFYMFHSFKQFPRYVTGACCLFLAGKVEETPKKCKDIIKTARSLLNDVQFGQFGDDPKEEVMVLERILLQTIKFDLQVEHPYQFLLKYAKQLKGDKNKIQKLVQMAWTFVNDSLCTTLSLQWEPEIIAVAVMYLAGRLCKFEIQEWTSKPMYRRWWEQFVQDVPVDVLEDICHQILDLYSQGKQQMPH
Protocol: Lanthascreen experiments were performed using commercially available reagents (Thermo Fisher) and according to the manufacturer’s instructions.

CDK13 = target: T1, CDK13 (Homo sapiens, UniProt Q14004+Q16531); assay: Label-free quantitative mass spectrometry in MDA-MB-231 cells, CDK13; format: cell-based; settings: for CDK13 peptide count: label-free quantitative MS, replicate values; for CDK13 peptide count (DMSO-normalised): normalised to DMSO = 1, replicate values
T1 construct: endogenous in cells; host or cells: MDA-MB-231
T1 sequence (Q14004 whole entry): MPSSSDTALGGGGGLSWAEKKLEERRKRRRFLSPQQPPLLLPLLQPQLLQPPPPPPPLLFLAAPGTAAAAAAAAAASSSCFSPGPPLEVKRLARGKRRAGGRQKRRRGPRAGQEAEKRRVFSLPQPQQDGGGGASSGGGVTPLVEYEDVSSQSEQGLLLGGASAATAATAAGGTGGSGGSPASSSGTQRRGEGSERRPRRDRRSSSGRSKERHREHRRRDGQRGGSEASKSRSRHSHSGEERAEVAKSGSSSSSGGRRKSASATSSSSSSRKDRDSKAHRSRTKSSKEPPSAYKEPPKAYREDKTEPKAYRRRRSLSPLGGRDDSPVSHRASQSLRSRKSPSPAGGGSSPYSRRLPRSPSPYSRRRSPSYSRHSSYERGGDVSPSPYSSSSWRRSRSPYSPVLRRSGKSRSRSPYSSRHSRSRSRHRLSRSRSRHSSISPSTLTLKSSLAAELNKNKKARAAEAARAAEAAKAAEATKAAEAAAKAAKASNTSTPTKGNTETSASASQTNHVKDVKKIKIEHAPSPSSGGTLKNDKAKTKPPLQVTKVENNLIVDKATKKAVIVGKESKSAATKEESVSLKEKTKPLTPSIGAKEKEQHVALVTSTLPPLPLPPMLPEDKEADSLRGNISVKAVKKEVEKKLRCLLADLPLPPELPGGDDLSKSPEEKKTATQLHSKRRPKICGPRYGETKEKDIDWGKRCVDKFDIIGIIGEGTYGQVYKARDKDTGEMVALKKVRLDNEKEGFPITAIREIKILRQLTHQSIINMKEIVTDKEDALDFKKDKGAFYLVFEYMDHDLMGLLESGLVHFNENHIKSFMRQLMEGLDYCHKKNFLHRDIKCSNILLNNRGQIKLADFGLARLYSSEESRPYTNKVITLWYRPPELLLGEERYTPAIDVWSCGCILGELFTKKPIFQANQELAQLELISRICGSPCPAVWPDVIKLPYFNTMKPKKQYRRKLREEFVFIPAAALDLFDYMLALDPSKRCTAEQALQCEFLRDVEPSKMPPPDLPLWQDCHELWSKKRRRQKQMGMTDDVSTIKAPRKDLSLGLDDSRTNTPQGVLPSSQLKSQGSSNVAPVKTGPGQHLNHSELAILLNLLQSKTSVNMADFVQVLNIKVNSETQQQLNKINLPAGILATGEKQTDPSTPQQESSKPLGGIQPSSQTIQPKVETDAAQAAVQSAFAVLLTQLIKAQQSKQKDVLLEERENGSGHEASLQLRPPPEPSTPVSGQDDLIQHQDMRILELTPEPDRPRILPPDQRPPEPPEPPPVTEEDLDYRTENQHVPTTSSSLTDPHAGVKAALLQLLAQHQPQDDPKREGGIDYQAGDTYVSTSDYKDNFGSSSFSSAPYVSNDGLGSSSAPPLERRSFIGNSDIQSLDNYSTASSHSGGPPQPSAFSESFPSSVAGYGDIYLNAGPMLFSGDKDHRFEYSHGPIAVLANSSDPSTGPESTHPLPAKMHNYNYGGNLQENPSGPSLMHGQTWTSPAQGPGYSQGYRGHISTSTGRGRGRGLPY
T1 sequence (O75909 whole entry partner): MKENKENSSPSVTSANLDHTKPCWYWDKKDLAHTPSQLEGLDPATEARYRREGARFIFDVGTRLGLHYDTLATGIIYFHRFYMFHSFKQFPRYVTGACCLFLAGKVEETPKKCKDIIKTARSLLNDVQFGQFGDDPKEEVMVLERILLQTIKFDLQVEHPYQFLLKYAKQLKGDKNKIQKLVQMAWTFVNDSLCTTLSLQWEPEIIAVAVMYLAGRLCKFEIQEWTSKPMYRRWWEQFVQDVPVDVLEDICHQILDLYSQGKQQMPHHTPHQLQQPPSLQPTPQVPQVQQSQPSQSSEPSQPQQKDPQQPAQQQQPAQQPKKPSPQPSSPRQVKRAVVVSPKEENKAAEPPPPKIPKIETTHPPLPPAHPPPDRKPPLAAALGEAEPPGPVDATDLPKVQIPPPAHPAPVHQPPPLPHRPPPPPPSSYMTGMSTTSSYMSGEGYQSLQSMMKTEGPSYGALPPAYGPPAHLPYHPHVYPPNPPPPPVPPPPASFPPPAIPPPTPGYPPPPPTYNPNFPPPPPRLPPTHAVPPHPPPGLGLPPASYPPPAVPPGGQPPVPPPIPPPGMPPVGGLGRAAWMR
T1 sequence (Q16531 2-1140 limits assumed): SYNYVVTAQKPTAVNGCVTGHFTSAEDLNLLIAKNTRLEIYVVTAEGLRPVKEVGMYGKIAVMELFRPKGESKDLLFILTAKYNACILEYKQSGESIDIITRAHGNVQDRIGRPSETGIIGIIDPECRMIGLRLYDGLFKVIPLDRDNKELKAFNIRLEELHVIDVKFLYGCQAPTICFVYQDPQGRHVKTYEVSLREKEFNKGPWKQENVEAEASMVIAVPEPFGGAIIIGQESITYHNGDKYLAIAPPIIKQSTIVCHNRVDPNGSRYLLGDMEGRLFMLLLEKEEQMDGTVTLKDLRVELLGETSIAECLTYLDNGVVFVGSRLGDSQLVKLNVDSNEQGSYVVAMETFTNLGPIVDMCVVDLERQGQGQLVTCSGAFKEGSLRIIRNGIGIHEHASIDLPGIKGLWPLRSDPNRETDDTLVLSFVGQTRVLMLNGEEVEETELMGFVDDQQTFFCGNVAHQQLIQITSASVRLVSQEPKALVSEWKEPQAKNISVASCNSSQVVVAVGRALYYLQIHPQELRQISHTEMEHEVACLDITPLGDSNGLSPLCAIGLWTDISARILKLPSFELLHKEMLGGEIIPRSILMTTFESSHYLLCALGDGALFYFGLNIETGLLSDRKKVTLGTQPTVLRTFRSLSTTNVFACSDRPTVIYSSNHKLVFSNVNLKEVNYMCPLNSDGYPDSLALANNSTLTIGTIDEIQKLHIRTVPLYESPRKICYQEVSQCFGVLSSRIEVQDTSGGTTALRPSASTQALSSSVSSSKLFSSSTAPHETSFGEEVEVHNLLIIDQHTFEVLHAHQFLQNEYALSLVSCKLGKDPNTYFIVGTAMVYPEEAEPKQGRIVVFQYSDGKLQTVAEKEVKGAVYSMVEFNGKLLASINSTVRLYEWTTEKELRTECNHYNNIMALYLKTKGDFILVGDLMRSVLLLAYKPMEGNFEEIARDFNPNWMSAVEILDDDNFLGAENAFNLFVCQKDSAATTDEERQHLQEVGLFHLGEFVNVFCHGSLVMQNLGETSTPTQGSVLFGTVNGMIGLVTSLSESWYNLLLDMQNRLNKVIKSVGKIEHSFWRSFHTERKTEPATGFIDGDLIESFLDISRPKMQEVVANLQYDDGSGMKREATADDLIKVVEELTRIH
In short: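 MDA-MB-231 cells treated 5 h with 1 µM cyclin K degrader or DMSO. Lysates digested with LysC and trypsin, then analysed by label-free diaPASEF LC-MS on a TimsTOF Pro2 with directDIA search and MS1 precursor quantification. Protein abundances scaled and analysed with limma.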

HEK293T cells = assay: Drug sensitivity assay (CellTiter-Glo viability) with or without MLN4924 pretreatment; format: cell-based, human; settings: for CTG: MLN4924 yes, HEK293T, single well; for EC50: Homo sapiens, HEK-293T, HEK293T viability, 72 h, compound alone, read-out: Cellular assays EC50; for EC50 / Toxicity rescue: Supplementary Table 2; for Toxicity rescue: MLN4924-mediated cytotoxicity rescue, 10 µM used where n.d.
In short: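 First, cells (HEK293T–Cas9, 0.15 × 10^6 ml^−1) are exposed to DMSO or 100 nM MLN4924. Next, drugs follow at 2 h. Finally, CellTiter-Glo is read at day 3 and normalised to DMSO.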

[1] = compound 0.038147 nM, series r49
[2] = compound 0.152588 nM, series r49
[3] = compound 0.610352 nM, series r49
[4] = compound 9.76563 nM, series r49
[5] = compound 39.0625 nM, series r49

SMILES: CC(C)c1nn(-c2c(Cl)cccc2Cl)c2nc(Cc3ccc(OCCO)cc3)[nH]c(=O)c12 [compound 21195]
IC50 (CDK12–cyclin K; Supplementary Table 2, read-out: Lanthascreen IC50 [nM] CDK12): 31 nM
Lanthascreen raw signal, sheet CDK12 (CDK12–cyclin K; [1]): 0.008046 and 0.008167
Lanthascreen raw signal, sheet CDK12 (CDK12–cyclin K; [2]): 0.01001 and 0.009391
Lanthascreen raw signal, sheet CDK12 (CDK12–cyclin K; [3]): 0.008764 and 0.009174
Lanthascreen raw signal, sheet CDK12 (CDK12–cyclin K; compound 0.76 nM, series r25): 0.01117 and 0.01013
Lanthascreen raw signal, sheet CDK12 (CDK12–cyclin K; compound 1.02544 nM, series r1): 0.009771 and 0.007848
Lanthascreen raw signal, sheet CDK12 (CDK12–cyclin K; compound 3.15521 nM, series r1): 0.009162 and 0.009522
Lanthascreen raw signal, sheet CDK12 (CDK12–cyclin K; compound 4.57247 nM, series r25): 0.01016 and 0.01236
Lanthascreen raw signal, sheet CDK12 (CDK12–cyclin K; compound 9.46563 nM, series r1): 0.007787 and 0.0086
Lanthascreen raw signal, sheet CDK12 (CDK12–cyclin K; [4]): 0.007441 and 0.00728
Lanthascreen raw signal, sheet CDK12 (CDK12–cyclin K; compound 13.7174 nM, series r25): 0.01024 and 0.009436
Lanthascreen raw signal, sheet CDK12 (CDK12–cyclin K; compound 31.5521 nM, series r1): 0.006914 and 0.007088
Lanthascreen raw signal, sheet CDK12 (CDK12–cyclin K; [5]): 0.007229 and 0.006516
Lanthascreen raw signal, sheet CDK12 (CDK12–cyclin K; compound 41.1523 nM, series r25): 0.009216 and 0.008226
Lanthascreen raw signal, sheet CDK12 (CDK12–cyclin K; compound 99.3891 nM, series r1): 0.004636 and 0.007689
Lanthascreen raw signal, sheet CDK12 (CDK12–cyclin K; compound 123.457 nM, series r25): 0.007812 and 0.006741
Lanthascreen raw signal, sheet CDK12 (CDK12–cyclin K; compound 156.25 nM, series r49): 0.006172 and 0.006187
Lanthascreen raw signal, sheet CDK12 (CDK12–cyclin K; compound 315.521 nM, series r1): 0.005556 and 0.004599
Lanthascreen raw signal, sheet CDK12 (CDK12–cyclin K; compound 370.37 nM, series r25): 0.006605 and 0.00608
Lanthascreen raw signal, sheet CDK12 (CDK12–cyclin K; compound 625 nM, series r49): 0.006151 and 0.006004
Lanthascreen raw signal, sheet CDK12 (CDK12–cyclin K; compound 2500 nM, series r49): 0.005584 and 0.005705
Lanthascreen raw signal, sheet CDK12 (CDK12–cyclin K; compound 3155.21 nM, series r1): 0.006552 and 0.005285
Lanthascreen raw signal, sheet CDK12 (CDK12–cyclin K; compound 3333.33 nM, series r25): 0.006042 and 0.006492
Lanthascreen raw signal, sheet CDK12 (CDK12–cyclin K; compound 10000 nM, series r25): 0.006222 and 0.005571
Lanthascreen raw signal, sheet CDK12 (CDK12–cyclin K; compound 10000 nM, series r49): 0.005751 and 0.005801
Lanthascreen raw signal, sheet CDK12 (CDK12–cyclin K; compound 10002 nM, series r1): 0.00595 and 0.006099
CDK13 peptide count (CDK13): 262.248 and 170.145
CDK13 peptide count (DMSO-normalised) (CDK13): 0.3901 and 0.2615
viability assay signal (normalized) (HEK293T cells; 5 nM, + MLN4924): 0.9981 and 0.9962
viability assay signal (normalized) (HEK293T cells; 5 nM, without MLN4924): 1.164 and 1.103
viability assay signal (normalized) (HEK293T cells; 10.7 nM, + MLN4924): 1.03 and 0.9545
viability assay signal (normalized) (HEK293T cells; 10.7 nM, without MLN4924): 1.004 and 0.916
viability assay signal (normalized) (HEK293T cells; 22.9 nM, + MLN4924): 1.044 and 1.059
viability assay signal (normalized) (HEK293T cells; 22.9 nM, without MLN4924): 0.9744 and 0.9831
viability assay signal (normalized) (HEK293T cells; 48.9 nM, + MLN4924): 0.9201 and 0.8826
viability assay signal (normalized) (HEK293T cells; 48.9 nM, without MLN4924): 0.5003 and 0.5087
viability assay signal (normalized) (HEK293T cells; 105 nM, + MLN4924): 0.7478 and 0.7261
viability assay signal (normalized) (HEK293T cells; 105 nM, without MLN4924): 0.2946 and 0.2725
viability assay signal (normalized) (HEK293T cells; 224 nM, + MLN4924): 0.3645 and 0.3756
viability assay signal (normalized) (HEK293T cells; 224 nM, without MLN4924): 0.297 and 0.2837
viability assay signal (normalized) (HEK293T cells; 478 nM, + MLN4924): 0.2678 and 0.2737
viability assay signal (normalized) (HEK293T cells; 478 nM, without MLN4924): 0.2806 and 0.2662
CTG (HEK293T cells; 2190 nM): 32283
viability assay signal (normalized) (HEK293T cells; 2190 nM, + MLN4924): 0.2528 and 0.2544
viability assay signal (normalized) (HEK293T cells; 2190 nM, without MLN4924): 0.2713 and 0.2676
CTG (HEK293T cells; 4680 nM): 28534 and 32644
viability assay signal (normalized) (HEK293T cells; 4680 nM, + MLN4924): 0.2234 and 0.2556
viability assay signal (normalized) (HEK293T cells; 4680 nM, without MLN4924): 0.2632 and 0.2448
CTG (HEK293T cells; 10000 nM): 27157 and 28920
viability assay signal (normalized) (HEK293T cells; 10000 nM, + MLN4924): 0.2126 and 0.2265
viability assay signal (normalized) (HEK293T cells; 10000 nM, without MLN4924): 0.2678 and 0.2469
EC50 (HEK293T cells): 39 nM
Toxicity rescue (HEK293T cells): 226%

IC50 (CDK12–cyclin K; Lanthascreen, average, Extended Data Fig. 8, read-out: CDK12 IC50): 1340 nM
Lanthascreen raw signal, sheet CDK12 (CDK12–cyclin K; compound 0.038147 nM, series r13): 0.01141 and 0.01078
Lanthascreen raw signal, sheet CDK12 (CDK12–cyclin K; [1]): 0.007974 and 0.007894
Lanthascreen raw signal, sheet CDK12 (CDK12–cyclin K; compound 0.152588 nM, series r13): 0.01172 and 0.01127
Lanthascreen raw signal, sheet CDK12 (CDK12–cyclin K; [2]): 0.009529 and 0.009772
Lanthascreen raw signal, sheet CDK12 (CDK12–cyclin K; compound 0.610352 nM, series r13): 0.01156 and 0.01218
Lanthascreen raw signal, sheet CDK12 (CDK12–cyclin K; [3]): 0.00969 and 0.009867
Lanthascreen raw signal, sheet CDK12 (CDK12–cyclin K; compound 9.76563 nM, series r13): 0.01168 and 0.01068
Lanthascreen raw signal, sheet CDK12 (CDK12–cyclin K; [4]): 0.008416 and 0.00874
Lanthascreen raw signal, sheet CDK12 (CDK12–cyclin K; compound 39.0625 nM, series r13): 0.01187 and 0.01164
Lanthascreen raw signal, sheet CDK12 (CDK12–cyclin K; [5]): 0.009257 and 0.00975
Lanthascreen raw signal, sheet CDK12 (CDK12–cyclin K; compound 156.25 nM, series r13): 0.01128 and 0.01164
Lanthascreen raw signal, sheet CDK12 (CDK12–cyclin K; compound 156.25 nM, series r49): 0.009429 and 0.008734
Lanthascreen raw signal, sheet CDK12 (CDK12–cyclin K; compound 625 nM, series r13): 0.01093 and 0.01047
Lanthascreen raw signal, sheet CDK12 (CDK12–cyclin K; compound 625 nM, series r49): 0.007601 and 0.007861
Lanthascreen raw signal, sheet CDK12 (CDK12–cyclin K; compound 2500 nM, series r13): 0.009465 and 0.008988
Lanthascreen raw signal, sheet CDK12 (CDK12–cyclin K; compound 2500 nM, series r49): 0.006693 and 0.006957
Lanthascreen raw signal, sheet CDK12 (CDK12–cyclin K; compound 10000 nM, series r13): 0.008087 and 0.007713
Lanthascreen raw signal, sheet CDK12 (CDK12–cyclin K; compound 10000 nM, series r49): 0.006488 and 0.006166
CDK13 peptide count (CDK13): 457.834 and 405.628
CDK13 peptide count (DMSO-normalised) (CDK13): 0.6811 and 0.6233
SMILES: C[C@H](C(=O)Nc1nc2ccccc2[nH]1)N1Cc2ccccc2C1=O [compound 919278]
viability assay signal (normalized) (HEK293T cells; 2 nM, + MLN4924): 1.029 and 0.9647
viability assay signal (normalized) (HEK293T cells; 2 nM, without MLN4924): 1.055 and 1.0418
viability assay signal (normalized) (HEK293T cells; 4.69 nM, + MLN4924): 1.105 and 1.018
viability assay signal (normalized) (HEK293T cells; 4.69 nM, without MLN4924): 1.004 and 1.008
viability assay signal (normalized) (HEK293T cells; 11 nM, + MLN4924): 1.0606 and 0.9151
viability assay signal (normalized) (HEK293T cells; 11 nM, without MLN4924): 1.048 and 1.059
viability assay signal (normalized) (HEK293T cells; 25.7 nM, + MLN4924): 1.025 and 1.119
viability assay signal (normalized) (HEK293T cells; 25.7 nM, without MLN4924): 0.893 and 1.0689
viability assay signal (normalized) (HEK293T cells; 141 nM, + MLN4924): 1.103 and 1.1762
viability assay signal (normalized) (HEK293T cells; 141 nM, without MLN4924): 1.0013 and 1.019
viability assay signal (normalized) (HEK293T cells; 331 nM, + MLN4924): 1.1 and 1.102
viability assay signal (normalized) (HEK293T cells; 331 nM, without MLN4924): 0.8356 and 0.898
viability assay signal (normalized) (HEK293T cells; 4270 nM, + MLN4924): 0.7328 and 0.6837
viability assay signal (normalized) (HEK293T cells; 4270 nM, without MLN4924): 0.374 and 0.3286
viability assay signal (normalized) (HEK293T cells; 10000 nM, + MLN4924): 0.484 and 0.4101
viability assay signal (normalized) (HEK293T cells; 10000 nM, without MLN4924): 0.3001 and 0.3205
EC50 (HEK293T cells): 559 nM
Toxicity rescue (HEK293T cells): 749%
